We go through one molecule from EP2902035B1, “Cell-permeable peptide inhibitors of the JNK signal transduction pathway for use in the treatment of inflammatory eye diseases” (Xigen Inflammation Ltd., priority 2010, dated 2012).

Test [1] deals with Endotoxin-Induced Uveitis (EIU). Nature of the test: Scoring of Endotoxin-Induced Uveitis (EIU) by slit lamp. The settings on record: scored at 24 hours on a scale from 0 to 5, mean ± SEM. The test is classed as in vivo, Lewis rats. The procedure: For intravenous (IV) injection, 100 µL of saline (NaCl 0.9%) or the JNK-inhibitor (poly-)peptide of SEQ ID NO: 11 (20 µg/kg in saline) were injected in a tail vein using a 25G-needle connected on a 1 mL syringe (Becton Dickinson, France). For intravitreous (IVT) injection, 5 µL of saline or the JNK-inhibitor (poly-)peptide of SEQ ID NO: 11 (0.2 µg/injection in saline) were injected in both eyes using a 30G disposable needle (BD-microfine syringe, nm Médical, Asnière, France). The IV dose of 20 µg/kg (i.e. 3.5 µg/rat in rats weighing 175g) was chosen according to studies showing that the JNK-inhibitor (poly-)peptide of SEQ ID NO: 11 is active at very low doses in other models. For intravitreous injections, the inventors used the minimal dose used in direct ear application after acute noise trauma in patients. This corresponds to 5% of the dose injected intravenously. […]
In a first set of experiment, 70 rats were randomized into 14 experimental groups with 5 rats per group. […] Clinical ocular inflammation was recorded only at 24 hours (see Scoring of Endotoxin-Induced Uveitis (EIU) section). […]
Animals were examined by slit lamp at 24 hours, the clinical peak of the disease in our experiments. The intensity of clinical ocular inflammation was scored on a scale from 0 to 5 for each eye as described previously 10: grade (0) indicates no inflammation; grade (1) indicates the presence of a minimal iris and conjunctival vasodilation but without the observation of flare or cells in the anterior chamber (AC); grade (2) indicates the presence of moderate iris and conjunctival vessel dilation but without evident flare or cells in the AC; grade (3) indicates the presence of intense iris vessels dilation, flare and less than 10 cells per slit lamp field in the AC; grade (4) indicates the presence of more severe clinical signs than grade 3, with more than 10 cells in the AC with or without the formation of a hypopion; grade (5) indicates the presence of intense inflammatory reaction, fibrin formation in the AC and total seclusion of the pupil. […]

In test [2] the test system is phospho-p44/42 MAPK (Erk1/2). Nature of the test: Immunohistochemistry of p-Erk1/2 on ocular sections in EIU. The format is in vivo, Lewis rats. The settings on record: 24h. The procedure:
A second set of experiment was designed to evaluate the anti-inflammatory effect of the JNK-inhibitor (poly-)peptide of SEQ ID NO: 11 at the cellular and tissue level as well as the biodistribution of this molecule 24 hours after administration. Rats were randomized into 11 experimental groups. 6 groups of rats with uveitis: untreated uveitic rats, rats injected intravenously with NaCl or the JNK-inhibitor (poly-)peptide of SEQ ID NO: 11 and rats injected intravitreously with the vehicle, the JNK-inhibitor (poly-)peptide of SEQ ID NO: 11 or dexamethasone. The 5 additional groups without uveitis were: untreated healthy rats, rats treated by NaCl IV or the JNK-inhibitor (poly-)peptide of SEQ ID NO: 11 IV and rats injected IVT with NaCl or the JNK-inhibitor (poly-)peptide of SEQ ID NO: 11. Three eyes from separate rats were collected per group and used for immunohistochemistry. Immunostaining of p-Erk1/2 was performed to evaluate the effect of the JNK-inhibitor (poly-)peptide of SEQ ID NO: 11 on the ERK pathway after IV or IVT administration. Sections were permeabilized as described above and incubated in blocking solution containing 0.1% Triton X-100 and 10% FCS (fetal calf serum) in PBS for 1 hour at room temperature. […]

On to `CC(C)C[C@@H](NC(=O)[C@@H](Cc1ccccc1)NC(=O)[C@H]1CCCN1C(=O)[C@@H](CCC(N)=O)NC(=O)[C@H](NC(=O)[C@H]1CCCN1C(=O)[C@@H](CCCNC(=N)N)NC(=O)[C@@H](CO)NC(=O)[C@@H](CCC(N)=O)NC(=O)[C@H](N)CC(=O)O)C(C)C)C(=O)N[C@H](CC(N)=O)C(=O)N[C@H](CC(C)C)C(=O)N[C@@H](C(=O)N[C@@H](C(=O)N1CCC[C@@H]1C(=O)N[C@H](CCCNC(=N)N)C(=O)N[C@H](CCCCN)C(=O)N1CCC[C@@H]1C(=O)N[C@H](CCCNC(=N)N)C(=O)N1CCC[C@@H]1C(=O)N1CCC[C@@H]1C(=O)N[C@H](CCCNC(=N)N)C(=O)N[C@H](CCCNC(=N)N)C(=O)N[C@H](CCCNC(=N)N)C(=O)N[C@H](CCC(N)=O)C(=O)N[C@H](CCCNC(=N)N)C(=O)N[C@H](CCCNC(=N)N)C(=O)N[C@H](CCCCN)C(=O)N[C@H](CCCCN)C(=O)N[C@H](CCCNC(=N)N)C(=O)NCC(=O)O)[C@H](C)O)[C@H](C)O` [SEQ ID NO: 11], for which the EIU clinical scores in test [1] (20 µg/kg intravenous (IV) injection at LPS challenge) worked out at 2.0 ± 0.1 A.U; in test [1] (intravitreous (IVT) administration at LPS challenge (SEQ ID NO: 11: 0.2 µg/injection)) it was 2.2 ± 0.2 A.U. For the same molecule, the “effect on p-Erk1/2 signal in the iris epithelium” value in test [2] (iris epithelium) is “no effect”. The “effect on p-Erk1/2 in retinal Müller glial (RMG) cells” value in test [2] (neuroretina, administered by either route (IV or IVT)) is on record as “no effect”.
